Measured values: paper PMC5218480 (PLoS ONE, 2017)

Test system: MV-4-11 cells
Assay: Gene expression microarray analysis (Affymetrix PrimeView) and GSEA
Assay type: cell-based, human
Parameters: RFU PODN (11730768_x_at) / Fold change /veh PODN (11730768_x_at) / RFU LINC00158 (11744669_a_at) / Fold change /veh LINC00158 (11744669_a_at) / RFU DUSP10 (11751237_a_at) / Fold change /veh DUSP10 (11751237_a_at) / RFU ID3 (11757404_x_at) / Fold change /veh ID3 (11757404_x_at) / RFU PLEKHG5 (11737974_s_at) / Fold change /veh PLEKHG5 (11737974_s_at) / RFU LRRC4B (11730491_at) / Fold change /veh LRRC4B (11730491_at) / RFU GIMAP4 (11747438_a_at) / Fold change /veh GIMAP4 (11747438_a_at) / RFU KRT8 (11758183_x_at) / Fold change /veh KRT8 (11758183_x_at) / RFU CNN1 (11734310_a_at) / Fold change /veh CNN1 (11734310_a_at) / RFU VPS37D (11726825_at) / Fold change /veh VPS37D (11726825_at) / RFU C10orf10 (11716522_x_at) / Fold change /veh C10orf10 (11716522_x_at) / RFU KIR2DL2 /// KIR2DL4 /// KIR2DL5A /// KIR2DL5B /// KIR2DS1 /// KIR2DS2 /// KIR2DS3 /// KIR2DS4 /// KIR3DL3 /// KIR3DL3 /// KIR3DS1 (11738374_at) / Fold change /veh KIR2DL2 /// KIR2DL4 /// KIR2DL5A /// KIR2DL5B /// KIR2DS1 /// KIR2DS2 /// KIR2DS3 /// KIR2DS4 /// KIR3DL3 /// KIR3DL3 /// KIR3DS1 (11738374_at) / RFU C1QL1 (11718748_at) / Fold change /veh C1QL1 (11718748_at) / RFU TMPRSS4 (11747572_a_at) / Fold change /veh TMPRSS4 (11747572_a_at) / RFU HAMP (11756126_x_at) / Fold change /veh HAMP (11756126_x_at) / RFU RNFT2 (11725882_a_at) / Fold change /veh RNFT2 (11725882_a_at) / RFU NR4A2 (11747474_a_at) / Fold change /veh NR4A2 (11747474_a_at) / RFU ABCC12 (11746883_a_at) / Fold change /veh ABCC12 (11746883_a_at) / RFU TMEM136 (11760407_x_at) / Fold change /veh TMEM136 (11760407_x_at) / RFU CLDN22 /// WWC2 (11732394_at) / Fold change /veh CLDN22 /// WWC2 (11732394_at) / RFU HLA-DPB1 (11760878_x_at) / Fold change /veh HLA-DPB1 (11760878_x_at) / RFU SPINT1 (11716480_a_at) / Fold change /veh SPINT1 (11716480_a_at) / RFU GAP43 (11754022_s_at) / Fold change /veh GAP43 (11754022_s_at) / RFU A4GNT (11735810_at) / Fold change /veh A4GNT (11735810_at) / RFU PRB3 (11715151_x_at) / Fold change /veh PRB3 (11715151_x_at) / RFU TUBB4B (11761932_at) / Fold change /veh TUBB4B (11761932_at) / RFU CAPN14 (11732068_a_at) / Fold change /veh CAPN14 (11732068_a_at) / RFU TMCC2 (11721928_a_at) / Fold change /veh TMCC2 (11721928_a_at) / RFU IRGQ (11745062_a_at) / Fold change /veh IRGQ (11745062_a_at) / RFU FAM174B (11720279_a_at) / Fold change /veh FAM174B (11720279_a_at) / RFU TMPRSS4 (11748680_a_at) / Fold change /veh TMPRSS4 (11748680_a_at) / RFU FAM212B (11763350_a_at) / Fold change /veh FAM212B (11763350_a_at) / RFU PLEKHG5 (11743358_a_at) / Fold change /veh PLEKHG5 (11743358_a_at) / RFU ZSCAN30 (11745921_a_at) / Fold change /veh ZSCAN30 (11745921_a_at) / RFU CMKLR1 (11741424_a_at) / Fold change /veh CMKLR1 (11741424_a_at) / RFU LOC101060620 /// MAPK8IP1 (11723275_at) / Fold change /veh LOC101060620 /// MAPK8IP1 (11723275_at) / RFU SPTSSB (11747773_x_at) / Fold change /veh SPTSSB (11747773_x_at) / RFU PRSS12 (11739890_at) / Fold change /veh PRSS12 (11739890_at) / RFU BIN1 (11741810_x_at) / Fold change /veh BIN1 (11741810_x_at) / RFU WNT11 (11732464_a_at) / Fold change /veh WNT11 (11732464_a_at) / RFU C10orf10 (11716521_a_at) / Fold change /veh C10orf10 (11716521_a_at) / RFU C5orf56 (11738089_at) / Fold change /veh C5orf56 (11738089_at) / RFU CYB561 (11721691_x_at) / Fold change /veh CYB561 (11721691_x_at) / RFU ANKRD19P (11752326_a_at) / Fold change /veh ANKRD19P (11752326_a_at) / RFU OR2T12 /// OR2T33 /// OR2T8 (11738714_s_at) / Fold change /veh OR2T12 /// OR2T33 /// OR2T8 (11738714_s_at) / RFU VCAN (11748164_a_at) / Fold change /veh VCAN (11748164_a_at) / RFU JSRP1 (11732532_at) / Fold change /veh JSRP1 (11732532_at) / RFU KRTAP10-11 (11738290_x_at) / Fold change /veh KRTAP10-11 (11738290_x_at) / RFU MYO3A (11730013_a_at) / Fold change /veh MYO3A (11730013_a_at) / RFU EBF3 (11725865_a_at) / Fold change /veh EBF3 (11725865_a_at) / RFU CAMK2N1 (11719241_x_at) / Fold change /veh CAMK2N1 (11719241_x_at) / RFU C5orf56 (11738088_a_at) / Fold change /veh C5orf56 (11738088_a_at) / RFU OLFML3 (11715873_a_at) / Fold change /veh OLFML3 (11715873_a_at) / RFU LOC100653217 /// NTM (11731650_a_at) / Fold change /veh LOC100653217 /// NTM (11731650_a_at) / RFU MAPK11 (11762145_a_at) / Fold change /veh MAPK11 (11762145_a_at) / RFU FIZ1 (11724087_x_at) / Fold change /veh FIZ1 (11724087_x_at) / RFU OASL (11726364_x_at) / Fold change /veh OASL (11726364_x_at) / RFU SOX15 (11748057_x_at) / Fold change /veh SOX15 (11748057_x_at) / RFU CD79A (11719716_a_at) / Fold change /veh CD79A (11719716_a_at) / RFU HIST1H1D (11736915_at) / Fold change /veh HIST1H1D (11736915_at) / RFU CASKIN2 (11723855_a_at) / Fold change /veh CASKIN2 (11723855_a_at) / RFU LOC730098 (11760151_x_at) / Fold change /veh LOC730098 (11760151_x_at) / RFU OR4N2 (11742367_at) / Fold change /veh OR4N2 (11742367_at) / RFU PRRT2 (11749266_a_at) / Fold change /veh PRRT2 (11749266_a_at) / RFU SNX32 (11753110_a_at) / Fold change /veh SNX32 (11753110_a_at) / RFU CDHR5 (11726645_a_at) / Fold change /veh CDHR5 (11726645_a_at) / RFU RCAN1 (11760418_a_at) / Fold change /veh RCAN1 (11760418_a_at) / RFU FAM167A (11723789_a_at) / Fold change /veh FAM167A (11723789_a_at) / RFU FAM26E (11764081_at) / Fold change /veh FAM26E (11764081_at) / RFU ISYNA1 (11749810_s_at) / Fold change /veh ISYNA1 (11749810_s_at) / RFU ACY1 (11761880_at) / Fold change /veh ACY1 (11761880_at) / RFU 11764098_at / Fold change /veh 11764098_at / RFU SAMD14 (11745864_x_at) / Fold change /veh SAMD14 (11745864_x_at) / RFU NPB (11741838_a_at) / Fold change /veh NPB (11741838_a_at) / RFU TMPRSS6 (11731388_a_at) / Fold change /veh TMPRSS6 (11731388_a_at) / RFU KRTAP10-2 (11738614_at) / Fold change /veh KRTAP10-2 (11738614_at) / RFU ARHGAP8 /// PRR5-ARHGAP8 (11727945_x_at) / Fold change /veh ARHGAP8 /// PRR5-ARHGAP8 (11727945_x_at) / RFU KRTAP5-7 /// NADSYN1 (11734609_at) / Fold change /veh KRTAP5-7 /// NADSYN1 (11734609_at) / RFU RASL12 (11751679_a_at) / Fold change /veh RASL12 (11751679_a_at) / RFU CDKN2B (11736163_a_at) / Fold change /veh CDKN2B (11736163_a_at) / RFU PRF1 (11729649_at) / Fold change /veh PRF1 (11729649_at) / RFU, ZNF638 /// ZNF638-IT1 / Fold change vs veh, ZNF638 /// ZNF638-IT1 / RFU, PANK3 / Fold change vs veh, PANK3 / RFU, SH3YL1 / Fold change vs veh, SH3YL1 / RFU, ZEB2 / Fold change vs veh, ZEB2 / RFU, NRIP1 / Fold change vs veh, NRIP1 / RFU, PTTG1IP / Fold change vs veh, PTTG1IP / RFU, CAPN2 / Fold change vs veh, CAPN2 / RFU, MED14 / Fold change vs veh, MED14 / RFU, SNORA58 / Fold change vs veh, SNORA58 / RFU, C1orf63 / Fold change vs veh, C1orf63 / RFU, LRRFIP1 / Fold change vs veh, LRRFIP1 / RFU, NDUFAF7 / Fold change vs veh, NDUFAF7 / RFU, SLC12A2 / Fold change vs veh, SLC12A2 / RFU, IBTK / Fold change vs veh, IBTK / RFU, ESF1 / Fold change vs veh, ESF1 / Fold change vs veh, TMEM50B / RFU, TAOK1 / Fold change vs veh, TAOK1 / RFU, ACBD3 / Fold change vs veh, ACBD3 / RFU, TMA16 / Fold change vs veh, TMA16 / RFU, RWDD3 / Fold change vs veh, RWDD3 / RFU, BCAT1 / Fold change vs veh, BCAT1 / RFU, EDEM3 / Fold change vs veh, EDEM3 / RFU, TMEM33 / Fold change vs veh, TMEM33 / RFU, WDR75 / Fold change vs veh, WDR75 / RFU, AHCTF1 / Fold change vs veh, AHCTF1 / RFU, TFRC / Fold change vs veh, TFRC / RFU, ZDHHC17 / Fold change vs veh, ZDHHC17 / RFU, NOM1 / Fold change vs veh, NOM1 / RFU, ARL8B / Fold change vs veh, ARL8B / RFU, ZBTB11 / Fold change vs veh, ZBTB11 / RFU, TAMM41 / Fold change vs veh, TAMM41 / RFU, KIAA1704 /// LOC100996395 / Fold change vs veh, KIAA1704 /// LOC100996395 / RFU, ING1 / Fold change vs veh, ING1 / RFU, TRMT61B / Fold change vs veh, TRMT61B / RFU, FUBP3 / Fold change vs veh, FUBP3 / RFU, TP53 / Fold change vs veh, TP53 / RFU, TNKS2 / Fold change vs veh, TNKS2 / RFU, ZFP14 / Fold change vs veh, ZFP14 / RFU, ACTR2 / Fold change vs veh, ACTR2 / RFU, PPP3R1 / Fold change vs veh, PPP3R1 / RFU, PIK3R1 / Fold change vs veh, PIK3R1 / RFU, HNRNPA1 / Fold change vs veh, HNRNPA1 / RFU, RNF170 / Fold change vs veh, RNF170 / RFU, ZNF28 / Fold change vs veh, ZNF28 / RFU, RNGTT / Fold change vs veh, RNGTT / RFU, OGT / Fold change vs veh, OGT / RFU, BRD1 / Fold change vs veh, BRD1 / RFU, MARS / Fold change vs veh, MARS / RFU, ZNF655 / Fold change vs veh, ZNF655 / RFU, FAHD1 / Fold change vs veh, FAHD1 / RFU, BDP1 / Fold change vs veh, BDP1 / RFU, LRRCC1 / Fold change vs veh, LRRCC1 / RFU, ARID1A / Fold change vs veh, ARID1A / RFU, ZNF146 / Fold change vs veh, ZNF146 / RFU, ZNF330 / Fold change vs veh, ZNF330 / RFU, GPN3 / Fold change vs veh, GPN3 / RFU, C9orf123 / Fold change vs veh, C9orf123 / RFU, N4BP2L2 / Fold change vs veh, N4BP2L2 / RFU, ARFIP1 / Fold change vs veh, ARFIP1 / RFU, FAM179B / Fold change vs veh, FAM179B / RFU, BCL10 / Fold change vs veh, BCL10 / RFU, UHRF1BP1L / Fold change vs veh, UHRF1BP1L / RFU, BET1 / Fold change vs veh, BET1 / RFU, CNOT2 / Fold change vs veh, CNOT2 / RFU, ZNF268 / Fold change vs veh, ZNF268 / Fold change vs veh, ZNF507 / RFU, DGCR2 / Fold change vs veh, DGCR2 / RFU, WDSUB1 / Fold change vs veh, WDSUB1 / Fold change vs veh, HSP90B1 /// MIR3652 / RFU, ADSS / Fold change vs veh, ADSS / RFU, GK / Fold change vs veh, GK / RFU, ZNF148 / Fold change vs veh, ZNF148 / RFU, TAF9 / Fold change vs veh, TAF9 / RFU, SLC1A5 / Fold change vs veh, SLC1A5 / RFU, SLMO2 / Fold change vs veh, SLMO2 / RFU, ABCC4 / Fold change vs veh, ABCC4 / RFU, LOC101060439 /// RAP1B / Fold change vs veh, LOC101060439 /// RAP1B / RFU, RFX7 / Fold change vs veh, RFX7 / RFU, GTPBP10 / Fold change vs veh, GTPBP10 / RFU, CNEP1R1 / Fold change vs veh, CNEP1R1 / RFU, BIVM-ERCC5 /// ERCC5 / Fold change vs veh, BIVM-ERCC5 /// ERCC5 / RFU, ILF3 / Fold change vs veh, ILF3 / RFU 11762660_at / Fold change /veh 11762660_at / RFU VCAN (11757783_s_at) / Fold change /veh VCAN (11757783_s_at) / RFU DDX43 (11728927_at) / Fold change /veh DDX43 (11728927_at) / RFU KRT8 (11758188_x_at) / Fold change /veh KRT8 (11758188_x_at) / RFU NKD1 (11759106_at) / Fold change /veh NKD1 (11759106_at) / RFU SRD5A1 (11742802_a_at) / Fold change /veh SRD5A1 (11742802_a_at) / RFU TPSAB1 /// TPSB2 (11721975_s_at) / Fold change /veh TPSAB1 /// TPSB2 (11721975_s_at) / RFU GSTM3 (11746129_a_at) / Fold change /veh GSTM3 (11746129_a_at) / RFU IL23R (11737362_x_at) / Fold change /veh IL23R (11737362_x_at) / RFU TMEM51 (11727254_a_at) / Fold change /veh TMEM51 (11727254_a_at) / RFU PIWIL2 (11732686_x_at) / Fold change /veh PIWIL2 (11732686_x_at) / RFU ORM1 (11744905_x_at) / Fold change /veh ORM1 (11744905_x_at) / RFU CCDC152 (11743942_at) / Fold change /veh CCDC152 (11743942_at) / RFU ECM1 (11717891_a_at) / Fold change /veh ECM1 (11717891_a_at) / RFU IL23R (11748794_a_at) / Fold change /veh IL23R (11748794_a_at) / RFU TNFAIP8L3 (11732012_x_at) / Fold change /veh TNFAIP8L3 (11732012_x_at) / RFU MBOAT4 (11741988_at) / Fold change /veh MBOAT4 (11741988_at) / RFU 11764193_at / Fold change /veh 11764193_at / RFU TMEM53 (11763286_at) / Fold change /veh TMEM53 (11763286_at) / RFU MAGEB2 (11727129_at) / Fold change /veh MAGEB2 (11727129_at) / RFU TMEM200A (11744735_a_at) / Fold change /veh TMEM200A (11744735_a_at) / RFU CCDC152 (11751479_a_at) / Fold change /veh CCDC152 (11751479_a_at) / RFU FAM211A (11726209_a_at) / Fold change /veh FAM211A (11726209_a_at) / RFU RGS16 (11746705_a_at) / Fold change /veh RGS16 (11746705_a_at) / RFU VCAN (11755009_s_at) / Fold change /veh VCAN (11755009_s_at) / RFU RHOB (11743442_s_at) / Fold change /veh RHOB (11743442_s_at) / RFU RGS16 (11720943_a_at) / Fold change /veh RGS16 (11720943_a_at) / RFU RGS16 (11720944_at) / Fold change /veh RGS16 (11720944_at) / RFU, VPS4B / Fold change vs veh, VPS4B / RFU, CREB1 / Fold change vs veh, CREB1 / RFU, DNAJC13 / Fold change vs veh, DNAJC13 / RFU, GNAQ / Fold change vs veh, GNAQ / RFU, CDK5R1 / Fold change vs veh, CDK5R1 / RFU, ZRANB3 / Fold change vs veh, ZRANB3 / RFU, CUL4A / Fold change vs veh, CUL4A / RFU, CCNY / Fold change vs veh, CCNY / RFU, UFL1 / Fold change vs veh, UFL1 / RFU, COG3 / Fold change vs veh, COG3 / RFU, DIAPH2 / Fold change vs veh, DIAPH2 / RFU, SKA2 / Fold change vs veh, SKA2 / RFU, AFF3 / Fold change vs veh, AFF3 / RFU, LMF1 / Fold change vs veh, LMF1 / RFU, IPO11 / Fold change vs veh, IPO11 / RFU, DFFB / Fold change vs veh, DFFB / RFU, FOXP1 / Fold change vs veh, FOXP1 / RFU, CARD8 / Fold change vs veh, CARD8 / RFU, STRN3 / Fold change vs veh, STRN3 / RFU, ADK / Fold change vs veh, ADK / RFU, RASSF2 / Fold change vs veh, RASSF2 / RFU, WIPF1 / Fold change vs veh, WIPF1 / RFU, LARP1B / Fold change vs veh, LARP1B / RFU, RASA1 / Fold change vs veh, RASA1 / RFU, RB1 / Fold change vs veh, RB1 / RFU, PPFIA1 / Fold change vs veh, PPFIA1 / RFU, MAT2A / Fold change vs veh, MAT2A / RFU, CCT5 / Fold change vs veh, CCT5 / RFU, WDR92 / Fold change vs veh, WDR92 / RFU, CUX1 / Fold change vs veh, CUX1 / RFU, TTC7A / Fold change vs veh, TTC7A / RFU, TMEM135 / Fold change vs veh, TMEM135 / RFU, DEPTOR / Fold change vs veh, DEPTOR / RFU, CPM / Fold change vs veh, CPM / RFU, DNAJB6 / Fold change vs veh, DNAJB6 / RFU, CACNA2D3 / Fold change vs veh, CACNA2D3 / RFU, DTX4 / Fold change vs veh, DTX4 / RFU, TFCP2 / Fold change vs veh, TFCP2 / RFU, GMCL1 /// GMCL1P1 / Fold change vs veh, GMCL1 /// GMCL1P1 / RFU, AEBP2 / Fold change vs veh, AEBP2 / RFU, SNHG1 /// SNORD22 /// SNORD25 /// SNORD26 /// SNORD27 /// SNORD28 /// SNORD29 /// SNORD31 / Fold change vs veh, SNHG1 /// SNORD22 /// SNORD25 /// SNORD26 /// SNORD27 /// SNORD28 /// SNORD29 /// SNORD31 / Fold change (Aza/veh), C12orf56 (ProbeSet 11735607_a_at) / Fold change (ACY-1035/veh), C12orf56 (ProbeSet 11735607_a_at) / Fold change (Aza/veh), FGFR1OP (ProbeSet 11751329_s_at) / Fold change (ACY-1035/veh), FGFR1OP (ProbeSet 11751329_s_at) / Fold change (Aza/veh), VPS36 (ProbeSet 11739960_a_at) / Fold change (ACY-1035/veh), VPS36 (ProbeSet 11739960_a_at) / RFU SYPL1 (11715823_x_at) / Fold change /veh SYPL1 (11715823_x_at) / RFU IGFBP7 (11715501_s_at) / Fold change /veh IGFBP7 (11715501_s_at) / RFU REEP3 (11722064_at) / Fold change /veh REEP3 (11722064_at) / RFU IGLL1 (11728026_x_at) / Fold change /veh IGLL1 (11728026_x_at): dose or concentration left out as unconfirmed
Details: MV-4-11 cells, 48 hours

## Nc1ncn([C@@H]2O[C@H](CO)[C@@H](O)[C@H]2O)c(=O)n1 [azacitidine]
  RFU FAM211A (11726209_a_at): 7.10 RFU
